Laboratory results as given in US9340580B2, “Peptide with multiple epitopes” (priority 2007, dated 2016).
Where a SMILES comes first, the peptide text is derived from it.

Assay: solubility pre-screen in an aqueous, acidic milieu; note: test concentration or dose not given here
Assay type: physicochemical
In the case of CC[C@H](C)[C@H](N)C(=O)N[C@@H](CC(=O)O)C(=O)N[C@@H](CC(C)C)C(=O)N[C@@H](CCCNC(=N)N)C(=O)N[C@@H](CCC(N)=O)C(=O)N[C@@H](CCSC)C(=O)N[C@@H](CCCNC(=N)N)C(=O)N[C@H](C(=O)N[C@H](C(=O)N[C@H](C(=O)N1CCC[C@H]1C(=O)N[C@H](C(=O)N[C@@H](CCCNC(=N)N)C(=O)O)[C@@H](C)CC)[C@@H](C)O)C(C)C)[C@@H](C)O [HDM01] (H-IDLRQMRTVTPIR-OH; N-terminus and C-terminus assumed), the Solubility test is reported as “YES”.
In the case of CC[C@H](C)[C@H](NC(=O)[C@@H]1CCCN1C(=O)[C@@H](NC(=O)[C@@H](NC(=O)[C@@H](NC(=O)[C@@H](N)CCCNC(=N)N)[C@@H](C)O)C(C)C)[C@@H](C)O)C(=O)N[C@@H](CCCNC(=N)N)C(=O)N[C@@H](CCSC)C(=O)N[C@@H](CCC(N)=O)C(=O)NCC(=O)NCC(=O)N[C@@H](CS)C(=O)NCC(=O)O [HDM02] (H-RTVTPIRMQGGCG-OH; N-terminus and C-terminus assumed), the Solubility test is reported as “YES”.
With CC(C)C[C@H](NC(=O)[C@H](CC(=O)O)NC(=O)[C@H](CC(C)C)NC(=O)[C@H](CO)NC(=O)[C@H](CCC(N)=O)NC(=O)[C@H](CC(N)=O)NC(=O)[C@@H](N)CCCNC(=N)N)C(=O)N[C@@H](C)C(=O)N[C@@H](CCC(=O)O)C(=O)N[C@@H](CCC(N)=O)C(=O)N[C@@H](CCC(=O)O)C(=O)N[C@@H](CC(C)C)C(=O)N[C@H](C(=O)N[C@@H](CC(=O)O)C(=O)N[C@@H](CS)C(=O)N[C@@H](C)C(=O)N[C@@H](CO)C(=O)N[C@@H](CCC(N)=O)C(=O)N[C@@H](Cc1c[nH]cn1)C(=O)O)C(C)C [HDM03C] (H-RNQSLDLAEQELVDCASQH-OH; N-terminus and C-terminus assumed) the Solubility test was “YES”.
For CC[C@H](C)[C@H](NC(=O)[C@H](Cc1ccc(O)cc1)NC(=O)[C@@H](N)CCC(=O)O)C(=O)N[C@@H](CCC(N)=O)C(=O)N[C@@H](Cc1c[nH]cn1)C(=O)N[C@@H](CC(N)=O)C(=O)NCC(=O)N[C@H](C(=O)N[C@H](C(=O)N[C@@H](CCC(N)=O)C(=O)N[C@@H](CCC(=O)O)C(=O)N[C@@H](CO)C(=O)N[C@@H](Cc1ccc(O)cc1)C(=O)O)C(C)C)C(C)C [HDM05] (H-EYIQHNGVVQESY-OH), the Solubility test was “YES”.
With CC(C)[C@H](NC(=O)[C@H](Cc1ccc(O)cc1)NC(=O)[C@@H](N)CCCNC(=N)N)C(=O)N[C@@H](C)C(=O)N[C@@H](CCCNC(=N)N)C(=O)N[C@@H](CCC(=O)O)C(=O)N[C@@H](CCC(N)=O)C(=O)N[C@@H](CO)C(=O)N[C@@H](CS)C(=O)N[C@@H](CCCNC(=N)N)C(=O)N[C@@H](CCCNC(=N)N)C(=O)N1CCC[C@H]1C(=O)N[C@@H](CC(N)=O)C(=O)O [HDM06] (H-RYVAREQSCRRPN-OH; N-terminus and C-terminus assumed) the Solubility test was “YES”.
For CC[C@H](C)[C@H](NC(=O)[C@H](CCCCN)NC(=O)[C@H](CC(N)=O)NC(=O)[C@@H](NC(=O)[C@H](CC(N)=O)NC(=O)[C@@H]1CCCN1)C(C)C)C(=O)N[C@@H](CCCNC(=N)N)C(=O)N[C@@H](CCC(=O)O)C(=O)N[C@@H](C)C(=O)N[C@@H](CC(C)C)C(=O)N[C@@H](C)C(=O)N[C@@H](CCC(N)=O)C(=O)N[C@H](C(=O)O)[C@@H](C)O [HDM07] (H-PNVNKIREALAQT-OH), the Solubility test was “YES”.
For CC[C@H](C)[C@H](NC(=O)[C@H](CCCCN)NC(=O)[C@@H](N)CC(N)=O)C(=O)N[C@@H](CCCNC(=N)N)C(=O)N[C@@H](CCC(=O)O)C(=O)N[C@@H](C)C(=O)N[C@@H](CC(C)C)C(=O)N[C@@H](C)C(=O)N[C@@H](CCC(N)=O)C(=O)N[C@H](C(=O)N[C@@H](Cc1c[nH]cn1)C(=O)N[C@@H](CO)C(=O)N[C@@H](C)C(=O)O)[C@@H](C)O [HDM08] (H-NKIREALAQTHSA-OH), the Solubility test was “YES”.
In the case of CC[C@H](C)[C@H](N)C(=O)NCC(=O)N[C@H](C(=O)N[C@@H](CCCCN)C(=O)N[C@@H](CC(=O)O)C(=O)N[C@@H](CC(C)C)C(=O)N[C@@H](CC(=O)O)C(=O)N[C@@H](C)C(=O)N[C@@H](Cc1ccccc1)C(=O)N[C@@H](CCCNC(=N)N)C(=O)N[C@@H](Cc1c[nH]cn1)C(=O)N[C@@H](Cc1ccc(O)cc1)C(=O)N[C@@H](CC(=O)O)C(=O)O)[C@@H](C)CC [HDM11] (H-IGIKDLDAFRHYD-OH), the Solubility test is reported as “YES”.
With CC(C)C[C@H](NC(=O)[C@H](CC(=O)O)NC(=O)[C@@H](N)CCCCN)C(=O)N[C@@H](CC(=O)O)C(=O)N[C@@H](C)C(=O)N[C@@H](Cc1ccccc1)C(=O)N[C@@H](CCCNC(=N)N)C(=O)N[C@@H](Cc1c[nH]cn1)C(=O)N[C@@H](Cc1ccc(O)cc1)C(=O)N[C@@H](CC(=O)O)C(=O)NCC(=O)N[C@@H](CCCNC(=N)N)C(=O)N[C@H](C(=O)O)[C@@H](C)O [HDM12] (H-KDLDAFRHYDGRT-OH) the Solubility test was “YES”.
For C[C@@H](O)[C@H](NC(=O)[C@H](CC(=O)O)NC(=O)[C@H](Cc1c[nH]c2ccccc12)NC(=O)[C@H](CO)NC(=O)[C@H](CC(N)=O)NC(=O)[C@@H](N)CCCNC(=N)N)C(=O)N[C@@H](CC(N)=O)C(=O)N[C@@H](Cc1c[nH]c2ccccc12)C(=O)NCC(=O)N[C@@H](CC(=O)O)C(=O)N[C@@H](CC(N)=O)C(=O)NCC(=O)N[C@@H](Cc1ccc(O)cc1)C(=O)NCC(=O)O [HDM16A] (H-RNSWDTNWGDNGYG-OH), the Solubility test was “YES”.
For CC(C)C[C@H](NC(=O)[C@H](CC(=O)O)NC(=O)[C@H](CC(C)C)NC(=O)[C@H](CCC(=O)O)NC(=O)[C@H](CO)NC(=O)[C@@H]1CCCN1C(=O)[C@@H](NC(=O)[C@H](CC(N)=O)NC(=O)[C@@H](NC(=O)[C@H](CO)NC(=O)[C@@H](N)CC(N)=O)C(C)C)C(C)C)C(=O)N[C@@H](CCCNC(=N)N)C(=O)N[C@@H](CO)C(=O)N[C@@H](CC(C)C)C(=O)N[C@@H](CCCNC(=N)N)C(=O)N[C@H](C(=O)O)[C@@H](C)O [HDM17] (H-NSVNVPSELDLRSLRT-OH), the Solubility test was “YES”.
With CC[C@H](C)[C@H](NC(=O)[C@H](CCC(=O)O)NC(=O)[C@H](Cc1c[nH]cn1)NC(=O)[C@H](CC(N)=O)NC(=O)[C@H](C)NC(=O)[C@H](CS)NC(=O)[C@H](CC(=O)O)NC(=O)[C@H](CCCCN)NC(=O)[C@@H](NC(=O)[C@H](CC(=O)O)NC(=O)[C@@H](NC(=O)[C@H](CCC(N)=O)NC(=O)[C@@H](N)CC(=O)O)C(C)C)C(C)C)C(=O)N[C@@H](CCCCN)C(=O)N[C@@H](CCCCN)C(=O)O [HDM19] (H-DQVDVKDCANHEIKK-OH) the Solubility test was “YES”.
In the case of CC[C@H](C)[C@H](NC(=O)[C@@H](NC(=O)[C@@H](N)CS)[C@@H](C)CC)C(=O)N[C@@H](Cc1c[nH]cn1)C(=O)N[C@@H](CCCNC(=N)N)C(=O)NCC(=O)N[C@@H](CCCCN)C(=O)N1CCC[C@H]1C(=O)N[C@@H](Cc1ccccc1)C(=O)N[C@@H](CCC(N)=O)C(=O)N[C@@H](CC(C)C)C(=O)N[C@@H](CCC(=O)O)C(=O)N[C@@H](C)C(=O)O [HDM20] (H-CIIHRGKPFQLEA-OH; N-terminus and C-terminus assumed), the Solubility test is reported as “YES”.
For CC(C)[C@H](NC(=O)[C@H](C)NC(=O)[C@@H](N)CCC(=O)O)C(=O)N[C@@H](Cc1ccccc1)C(=O)N[C@@H](CCC(=O)O)C(=O)N[C@@H](C)C(=O)N[C@@H](CC(N)=O)C(=O)N[C@@H](CCC(N)=O)C(=O)N[C@@H](CC(N)=O)C(=O)N[C@H](C(=O)N[C@@H](CCCCN)C(=O)N[C@H](C(=O)N[C@@H](C)C(=O)N[C@@H](CCCCN)C(=O)O)[C@@H](C)O)[C@@H](C)O [HDM22A] (H-EAVFEANQNTKTAK-OH; N-terminus and C-terminus assumed), the Solubility test was “YES”.
For CSCC[C@H](NC(=O)[C@@H]1CCCN1C(=O)[C@H](CC(=O)O)NC(=O)[C@H](Cc1ccccc1)NC(=O)[C@@H](NC(=O)[C@@H](N)CCC(=O)O)[C@@H](C)O)C(=O)N[C@@H](CCCCN)C(=O)N[C@H](C(=O)N1CCC[C@H]1C(=O)N[C@@H](CC(=O)O)C(=O)N[C@@H](Cc1c[nH]cn1)C(=O)N[C@@H](CO)C(=O)N[C@@H](CC(=O)O)C(=O)N[C@@H](CCCCN)C(=O)O)C(C)C [HDM29A] (H-ETFDPMKVPDHSDK-OH), the Solubility test was “YES”.
For CSCC[C@H](NC(=O)[C@@H]1CCCN1C(=O)[C@H](CC(=O)O)NC(=O)[C@H](Cc1ccccc1)NC(=O)[C@@H](NC(=O)[C@@H](N)CCC(=O)O)[C@@H](C)O)C(=O)N[C@@H](CCCCN)C(=O)N[C@H](C(=O)N1CCC[C@H]1C(=O)N[C@@H](CC(=O)O)C(=O)N[C@@H](Cc1c[nH]cn1)C(=O)N[C@@H](CO)C(=O)N[C@@H](CC(=O)O)C(=O)O)C(C)C [HDM29] (H-ETFDPMKVPDHSD-OH), the Solubility test was “YES”.
With CC[C@H](C)[C@H](NC(=O)[C@H](CC(N)=O)NC(=O)[C@H](CCCNC(=N)N)NC(=O)[C@H](CCSC)NC(=O)[C@H](CC(=O)O)NC(=O)[C@@H](N)CC(C)C)C(=O)N[C@@H](CCC(N)=O)C(=O)N[C@H](C(=O)N[C@@H](CCCNC(=N)N)C(=O)NCC(=O)N[C@@H](CC(C)C)C(=O)N[C@@H](CCCCN)C(=O)N[C@@H](CCC(N)=O)C(=O)O)C(C)C [HDM33] (H-LDMRNIQVRGLKQ-OH; N-terminus and C-terminus assumed) the Solubility test was “YES”.
In the case of CC[C@H](C)[C@H](NC(=O)[C@H](CC(N)=O)NC(=O)[C@@H](N)CCCNC(=N)N)C(=O)N[C@@H](CCC(N)=O)C(=O)N[C@H](C(=O)N[C@@H](CCCNC(=N)N)C(=O)NCC(=O)N[C@@H](CC(C)C)C(=O)N[C@@H](CCCCN)C(=O)N[C@@H](CCC(N)=O)C(=O)N[C@@H](CCSC)C(=O)N[C@@H](CCCCN)C(=O)N[C@@H](CCCNC(=N)N)C(=O)N[C@H](C(=O)NCC(=O)O)C(C)C)C(C)C [HDM34] (H-RNIQVRGLKQMKRVG-OH; N-terminus and C-terminus assumed), the Solubility test is reported as “YES”.
With CSCC[C@H](NC(=O)[C@H](CCC(N)=O)NC(=O)[C@H](CCCCN)NC(=O)[C@H](CC(C)C)NC(=O)CNC(=O)[C@@H](N)CCCNC(=N)N)C(=O)N[C@@H](CCCCN)C(=O)N[C@@H](CCCNC(=N)N)C(=O)N[C@H](C(=O)NCC(=O)N[C@@H](CC(=O)O)C(=O)N[C@@H](C)C(=O)N[C@@H](CC(N)=O)C(=O)O)C(C)C [HDM35] (H-RGLKQMKRVGDAN-OH; N-terminus and C-terminus assumed) the Solubility test was “YES”.
For CC(C)[C@H](NC(=O)[C@H](CCCNC(=N)N)NC(=O)[C@@H](N)CCCCN)C(=O)NCC(=O)N[C@@H](CC(=O)O)C(=O)N[C@@H](C)C(=O)N[C@@H](CC(N)=O)C(=O)N[C@H](C(=O)N[C@@H](CCCCN)C(=O)N[C@@H](CO)C(=O)N[C@@H](CCC(=O)O)C(=O)N[C@@H](CC(=O)O)C(=O)NCC(=O)O)C(C)C [HDM36] (H-KRVGDANVKSEDG-OH), the Solubility test was “YES”.
